The record followed here is patent US7365096B2, “Methods for selectively inhibiting Janus tyrosine kinase 3 (Jak3)” (Board of Regents, The University of Texas System, priority 2002, dated 2008).

This assay concerns the target T1, Jak3 (Homo sapiens, UniProt P52333).
T1 sequence (P52333 1-1124): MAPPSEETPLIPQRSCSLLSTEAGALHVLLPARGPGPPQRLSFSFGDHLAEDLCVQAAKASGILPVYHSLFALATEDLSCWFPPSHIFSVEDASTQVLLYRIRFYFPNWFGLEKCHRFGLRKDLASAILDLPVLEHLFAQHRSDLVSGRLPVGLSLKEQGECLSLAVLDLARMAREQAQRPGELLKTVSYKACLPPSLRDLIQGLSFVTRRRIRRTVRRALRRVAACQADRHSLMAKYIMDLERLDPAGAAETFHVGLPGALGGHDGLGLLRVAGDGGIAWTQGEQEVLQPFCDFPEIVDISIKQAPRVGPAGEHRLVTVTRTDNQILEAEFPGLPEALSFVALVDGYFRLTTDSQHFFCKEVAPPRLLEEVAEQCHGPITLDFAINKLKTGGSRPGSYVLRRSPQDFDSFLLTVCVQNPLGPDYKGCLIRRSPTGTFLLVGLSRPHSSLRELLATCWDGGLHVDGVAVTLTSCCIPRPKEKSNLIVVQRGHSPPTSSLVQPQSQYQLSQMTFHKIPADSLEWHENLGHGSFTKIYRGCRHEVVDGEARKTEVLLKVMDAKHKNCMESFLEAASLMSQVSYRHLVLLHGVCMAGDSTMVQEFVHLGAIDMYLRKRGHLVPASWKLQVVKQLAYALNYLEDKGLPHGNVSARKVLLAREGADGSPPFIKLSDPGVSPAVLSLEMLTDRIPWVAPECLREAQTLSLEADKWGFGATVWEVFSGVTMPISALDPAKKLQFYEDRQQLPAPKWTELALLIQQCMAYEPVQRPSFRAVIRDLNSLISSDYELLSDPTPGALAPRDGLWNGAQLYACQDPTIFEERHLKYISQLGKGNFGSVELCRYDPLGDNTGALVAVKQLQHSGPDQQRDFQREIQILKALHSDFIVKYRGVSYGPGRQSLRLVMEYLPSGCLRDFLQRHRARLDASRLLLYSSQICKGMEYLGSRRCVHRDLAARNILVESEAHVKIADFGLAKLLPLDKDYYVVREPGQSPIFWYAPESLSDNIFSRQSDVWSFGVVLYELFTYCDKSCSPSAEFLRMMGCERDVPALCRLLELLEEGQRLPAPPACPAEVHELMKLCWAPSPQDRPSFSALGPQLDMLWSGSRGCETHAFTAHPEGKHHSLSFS
Description: IL-2 activated Jak3 tyrosine phosphorylation in YT cells (Western blot). It counts as cell-based. More on the design: endogenous in cells; host or cells: human YT cells. The note with it: 1-100 μM, 2 hours, 100 nM IL-2. The protocol: Solubilization of membrane proteins, immunoprecipitation, and Western blot analysis. Frozen cell pellets were thawed on ice and solubilized in 1% TX-100 lysis buffer (10^8 cells/ml) and clarified by centrifugation, as previously described.^16 For human T-cells, supernates were incubated rotating end over end for 2 hours at 4° C. with either 5 μl/ml polyclonal rabbit antisera raised against peptides derived from the unique COOH-termini of Jak3 (amino acid [a.a.] 1104-1124), carboxyl termini of human Stat5a (a.a. 775-794) or Stat5b (a.a. 777-787).^26 Ab and immunoprecipitated proteins were captured by incubation for 30 minutes with Protein A-Sepharose beads (Pharmacia, Piscataway, N.J.), sedimented for purification, and eluted by boiling in 2×SDS-sample buffer (20% Glycerol, 10% 2-Mercaptoethanol, 4.6% SDS, 0.004% Bromophenol blue in 0.125 M Tris pH 6.8) for 4 minutes. For phosphoMapk assays, approximately 25 μg of total cell lysate was dissociated in SDS-sample buffer and separated on 10% (all others on 7.5%) SDS-PAGE under reducing conditions. […]
On the technique in general: Immunoblotting shows a protein as a band on a membrane.

SMILES strings stand for the structures. Entries after “also recorded” stand apart in the source; their conditions may differ.

Take `CN(C)CC1CCCCCCCCCC(CN(C)C)C1=O` (mixture of isomers) [649641P (NC1153)]: the “tyrosine phosphorylation of Jak3” value is “inhibited in a dose-dependent fashion; also recorded: inhibited tyrosine phosphorylation”.
